Eight compounds from ChEMBL document CHEMBL1201862, “PubChem BioAssay data set” (2004) can be followed below.

Holding throughout (test): DTP human tumour cell line panel, 48 h
Assay [1] concerns NCI-H522.
The test system of assay [2] is CAKI-1.
In assay [3] the test system is K562.
Assay [4] relates to HOP-62.
In assay [5] the test system is SNB-75.
For assay [6], the system named is NCI-H23.
The subject of assay [7] is Hs-578T.
The test system of assay [8] is M14.
Assay [9] concerns CCRF-CEM.
Assay [10] deals with SF-539.
Assay [11] deals with MDA-N.
The test system of assay [12] is SK-OV-3.
Assay [13] relates to Malme-3M.
Assay [14] concerns OVCAR-5.
In assay [15] the test system is SK-MEL-28.
In assay [16] the test system is 786-0.
Assay [17] relates to DU-145.
Assay [18] deals with ACHN.
Assay [19] relates to IGROV-1.

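Five compound concentrations were applied to cells in 96-well plates for 48 hours; endpoints were derived by simple linear interpolation of the resulting dose-response curve. Here, GI50 denotes the concentration required for 50% inhibition of growth.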 Activity calls are given as the source filed them. Rule as the data show it: active = GI50 up to about 1.1 µM and inactive = higher.

As usually defined, the GI50 is the concentration giving 50% growth inhibition. On to `S=C(N/N=C(/c1ccccc1)c1ccccn1)N1CCCCC1`, for which the GI50 in assay [1] was < 0.0344 µM (active); in assay [2], 0.143 µM (active); in assay [3], < 0.0161 µM (active); in assay [4], 0.0785 µM (active); in [5], 1.25 µM (inactive); in assay [6], 0.0459 µM (active). Further, the GI50 in [7] is 0.237 µM (active); in assay [8], 0.001 µM (active); in assay [9] it was < 0.0134 µM (active); in [10], 0.424 µM (active); in assay [11], < 0.038 µM (active); in [12], < 0.0387 µM (active). For the same compound, the GI50 is 0.441 µM (active) in [13]; 0.0455 µM (active) in [14]; 0.604 µM (active) in assay [15]; < 0.0286 µM (active) in assay [16]; 0.618 µM (active) in assay [17]; < 0.0443 µM (active) in assay [18]. Further, the GI50 in assay [19] was < 0.0164 µM (active).

As for `CC(C)Cc1cc2c(cc1O)CCC1C2CC[C@@]2(C)C1CC[C@@H]2O` (stereo not given in full), the GI50 is 6.25 µM (inactive) in [1]; 16 µM (inactive) in [2]; 3.83 µM (inactive) in assay [3]; 11.6 µM (inactive) in [4]; 5.68 µM (inactive) in [5]; 8.39 µM (inactive) in assay [6]. Further, the GI50 in assay [7] was 6.19 µM (inactive); in assay [8] it was 7.87 µM (inactive); in [9] it was 7.91 µM (inactive); in assay [10], 19.5 µM (inactive); in [11], 7.05 µM (inactive); in assay [12], 8.17 µM (inactive). Moreover, the GI50 in assay [13] is 17.7 µM (inactive); in [14] it was 16.1 µM (inactive); in assay [15] it was 10.6 µM (inactive); in assay [16] it was 8.13 µM (inactive); in assay [17] it was 9.2 µM (inactive); in assay [18] it was 6.95 µM (inactive). The GI50 in assay [19] is 15.1 µM (inactive).

Regarding `COC(=O)c1c(O)ccc2c1c1c(n2-c2ccc(OC)cc2)C(=O)c2ccccc2C1=O`, the GI50 is 15.1 µM (inactive) in [1]; 14.1 µM (inactive) in [2]; 55.2 µM (inactive) in assay [3]; 20.2 µM (inactive) in assay [4]; 23.9 µM (inactive) in assay [5]; 36.7 µM (inactive) in [6]. The GI50 in assay [7] was 16.9 µM (inactive); in [8], 63.2 µM (inactive); in [9], 15.2 µM (inactive); in assay [10], 15.3 µM (inactive); in [11] it was 57.1 µM (inactive); in assay [12], 19.3 µM (inactive). Also, the GI50 in assay [13] is 24.4 µM (inactive); in [14] it was 30.7 µM (inactive); in [15] it was 29.9 µM (inactive); in [16], 15.7 µM (inactive); in assay [17], 21.5 µM (inactive); in assay [18], 12.8 µM (inactive). Also, the GI50 in assay [19] is 16.6 µM (inactive).

Turning to `CC(=O)OCCOc1cc2c([nH]c3ccccc32)c(C)c2cccc1-2`, the GI50 was 1.84 µM (inactive) in assay [1]; 2.12 µM (inactive) in [2]; 1.36 µM (inactive) in assay [3]; 4.6 µM (inactive) in assay [4]; 1.71 µM (inactive) in assay [5]; 1.94 µM (inactive) in assay [6]. In addition, the GI50 was 3.47 µM (inactive) in [7]; 2.48 µM (inactive) in [8]; 3.38 µM (inactive) in [9]; 1.91 µM (inactive) in assay [10]; 3.16 µM (inactive) in [11]; 4.3 µM (inactive) in assay [12]. In addition, the GI50 is 2.11 µM (inactive) in assay [13]; 2.97 µM (inactive) in [14]; 2.58 µM (inactive) in assay [15]; 2.84 µM (inactive) in assay [16]; 4.16 µM (inactive) in assay [17]; 1.75 µM (inactive) in [18]. In assay [19], the GI50 is 1.77 µM (inactive).

In the case of `Nc1[nH]nc2ccccc12`, the GI50 is > 100 µM (inactive) in [1]; > 100 µM (inactive) in assay [2]; 28.5 µM (inactive) in [3]; > 100 µM (inactive) in assay [4]; > 100 µM (inactive) in assay [5]; > 100 µM (inactive) in assay [6]. Further, the GI50 in assay [7], in assay [8], in assay [9], in assay [10], in assay [11] and in assay [12] was > 100 µM (inactive) throughout. For the same compound, the GI50 in assay [13] was > 100 µM (inactive); in assay [14], 60 µM (inactive); in assay [15], > 100 µM (inactive); in assay [16] it was > 100 µM (inactive); in assay [17] it was > 100 µM (inactive); in [18] it was > 100 µM (inactive). For the same compound, the GI50 in assay [19] was > 100 µM (inactive).

For `O=Cc1[nH]c(=O)[nH]c(=O)c1C(=O)O`, the GI50 is > 100 µM (inactive) in assay [1]; > 100 µM (inactive) in [2]; > 100 µM (inactive) in assay [3]; > 100 µM (inactive) in [4]; 43.8 µM (inactive) in assay [5]; > 100 µM (inactive) in assay [6]. Further, the GI50 in assay [7], in [8], in assay [9], in assay [10], in [11] and in assay [12] was > 100 µM (inactive) throughout. In addition, the GI50 in [13], in [14], in assay [15], in assay [16], in assay [17] and in assay [18] was > 100 µM (inactive) in each case. Moreover, the GI50 in assay [19] is > 100 µM (inactive).

With `O=c1[nH]nc(-c2ccccc2)n1Nc1ccccc1`, the GI50 in assay [1], in assay [2], in assay [3], in assay [5], in [6] and in assay [7] was > 100 µM (inactive) throughout. Also, the GI50 in assay [8], in assay [9], in assay [10], in assay [11], in [12] and in assay [13] was > 100 µM (inactive) in each case. Moreover, the GI50 in assay [14], in [15], in assay [16], in assay [17], in [18] and in assay [19] was > 100 µM (inactive) throughout.

On to `COc1ccc(OC)c(CNc2ccc(C(=O)O)cc2)c1`, for which the GI50 in assay [1], in assay [2], in [3], in assay [5], in assay [6] and in assay [7] was > 100 µM (inactive) throughout. For the same compound, the GI50 in assay [8], in assay [9], in assay [10], in assay [11], in [12] and in assay [13] was > 100 µM (inactive) in each case. Besides, the GI50 in assay [14], in assay [15], in assay [16], in [17], in assay [18] and in assay [19] was > 100 µM (inactive) in each case.
